Experimental data published in US20170327549A1, “Adenylation Enzyme Inhibitors” (Stichting Het Nederlands Kanker Instituut - antoni van …, priority 2014, published 2017).

Molecular target: T1, Uba1 (Homo sapiens, UniProt P22314)
T1 sequence (P22314 1-1058): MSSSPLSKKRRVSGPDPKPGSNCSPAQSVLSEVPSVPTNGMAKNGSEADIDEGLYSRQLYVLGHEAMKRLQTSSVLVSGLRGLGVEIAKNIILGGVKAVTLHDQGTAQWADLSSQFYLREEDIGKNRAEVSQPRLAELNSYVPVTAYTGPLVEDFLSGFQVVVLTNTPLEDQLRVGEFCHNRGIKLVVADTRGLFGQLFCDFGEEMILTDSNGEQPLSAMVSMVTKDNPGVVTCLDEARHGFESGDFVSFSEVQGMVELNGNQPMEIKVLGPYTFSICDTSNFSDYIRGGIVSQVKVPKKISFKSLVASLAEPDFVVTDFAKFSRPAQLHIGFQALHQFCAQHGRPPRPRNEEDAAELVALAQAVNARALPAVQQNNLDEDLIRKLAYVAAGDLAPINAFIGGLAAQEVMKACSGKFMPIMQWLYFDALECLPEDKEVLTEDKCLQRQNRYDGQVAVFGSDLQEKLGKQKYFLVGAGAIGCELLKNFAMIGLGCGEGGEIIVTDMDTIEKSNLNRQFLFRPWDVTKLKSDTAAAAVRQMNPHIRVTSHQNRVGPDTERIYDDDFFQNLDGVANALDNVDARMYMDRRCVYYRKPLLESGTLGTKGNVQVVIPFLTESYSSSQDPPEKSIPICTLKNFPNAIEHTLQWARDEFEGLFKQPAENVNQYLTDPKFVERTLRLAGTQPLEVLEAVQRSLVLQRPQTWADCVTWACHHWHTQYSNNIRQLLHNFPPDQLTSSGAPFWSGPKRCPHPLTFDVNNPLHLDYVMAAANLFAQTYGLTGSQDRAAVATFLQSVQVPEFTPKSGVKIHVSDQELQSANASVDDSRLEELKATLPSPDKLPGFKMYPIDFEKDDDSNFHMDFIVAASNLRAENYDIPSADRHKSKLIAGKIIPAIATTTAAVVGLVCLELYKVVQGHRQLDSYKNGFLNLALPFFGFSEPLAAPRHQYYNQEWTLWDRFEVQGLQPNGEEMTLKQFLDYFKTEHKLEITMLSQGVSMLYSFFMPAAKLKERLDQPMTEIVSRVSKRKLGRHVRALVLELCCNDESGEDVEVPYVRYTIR
Assay: Peptide inhibitors of Ub-E1 thioester formation
Assay type: biochemical
Description: Peptides VYRFYGG and VYRFYGΔAla of varying concentrations (10, 50, 100, 200, 500, 700, 1000 μM) were incubated with 0.3 μM Uba1 in the presence of 1 mM ATP and 10 mM MgCl2 in TBS buffer (50 mM Tris, 150 mM NaCl, pH=7.5) for 15 min at room temperature. TAMRA-Ub (1 μM) was added to the reaction and samples were taken at two time points, respectively 15 sec and 15 min. The proteins were separated by SDS-PAGE and the TAMRA-Ub-E1 conjugates were visualized using a fluorescence scanner (λex=530 nm; λem=580 nm).

[1] = initial velocities measured at 15 seconds
[2] = reactions allowed to proceed for 15 min

VYRFYG-ΔAla
inhibitory potency against Uba1 activity relative to VYRFYGG (after 15 min incubation, quantified from gel scanning): higher inhibitory potency against Uba1 activity
inhibition of (TAMRA-Ub)-E1 formation [1]: inhibitory effect
inhibition of (TAMRA-Ub)-E1 formation [2]: prolonged inhibition of the E1

VYRFYGG [reference compound]
inhibition of (TAMRA-Ub)-E1 formation [1]: inhibitory effect
inhibition of (TAMRA-Ub)-E1 formation [2]: no detectable inhibition of E1 activity
